This note sets out measurements from patent US10513538B2, “Dipeptidyl peptidase-IV (DPPIV), inhibitory peptide compound, composition containing the same, and production method for the same” (MARUHA NICHIRO CORPORATION, priority 2013, dated 2019).

As usually defined, the IC50 is the concentration that inhibits the measured activity by half.

The target in the assay is T1, DPPIV (Human, recombinant) (Homo sapiens, UniProt P27487).
T1 construct: purchased Biomol (DPPIV Drug Discovery Assay Kit, Enzo Life Sciences, Inc.)
The experiment in a line: DPPIV inhibitory activity measurement with partly modified DPPIV Drug Discovery Assay Kit (AMC substrate). The format is biochemical. The following applies: for IC50: synthesized peptide, serially diluted; for Activity Contribution Ratio (%): contribution of the peptide to the DPPIV inhibitory activity of the salmon milt peptide composition, from content, peptide IC50 and composition IC50.

Residues, ends and D or L forms follow the SMILES beside them.

T1 sequence (P27487 whole entry): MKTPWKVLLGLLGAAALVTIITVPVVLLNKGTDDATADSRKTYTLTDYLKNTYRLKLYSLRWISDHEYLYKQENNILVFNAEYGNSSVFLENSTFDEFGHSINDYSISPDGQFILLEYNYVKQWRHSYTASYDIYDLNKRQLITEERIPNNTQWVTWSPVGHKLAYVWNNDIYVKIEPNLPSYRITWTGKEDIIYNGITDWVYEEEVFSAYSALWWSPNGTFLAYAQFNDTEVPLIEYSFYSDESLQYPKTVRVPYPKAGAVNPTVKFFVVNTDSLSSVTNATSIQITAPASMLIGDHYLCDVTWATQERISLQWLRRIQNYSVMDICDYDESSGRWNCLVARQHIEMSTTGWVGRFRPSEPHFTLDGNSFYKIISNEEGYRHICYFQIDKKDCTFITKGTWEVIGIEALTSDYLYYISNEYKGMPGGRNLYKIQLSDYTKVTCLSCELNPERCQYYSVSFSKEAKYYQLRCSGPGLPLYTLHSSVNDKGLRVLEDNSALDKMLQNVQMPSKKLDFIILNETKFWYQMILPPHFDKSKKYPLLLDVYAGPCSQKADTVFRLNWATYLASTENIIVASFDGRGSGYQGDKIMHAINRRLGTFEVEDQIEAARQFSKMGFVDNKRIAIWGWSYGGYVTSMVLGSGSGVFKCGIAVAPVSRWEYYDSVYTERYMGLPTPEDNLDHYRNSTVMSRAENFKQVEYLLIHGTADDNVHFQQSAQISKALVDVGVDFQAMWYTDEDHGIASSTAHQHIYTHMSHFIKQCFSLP
Experimental: Each of the DPPIV inhibitory peptide compounds obtained in Example 1 was measured for the DPPIV inhibitory activity. The measurement was performed by using a partly modified DPPIV Drug Discovery Assay Kit (manufactured by Enzo Life Sciences, Inc.). As a substrate of a DPPIV enzyme, an AMC substrate (H-Gly-Pro-amino-4-methylcoumarin, BML-P189-9090; manufactured by Biomol) was used, as an enzyme, DPPIV (Human, recombinant; manufactured by Biomol) was used, and as a control inhibitor, Diprotin A (manufactured by Peptide Institute Inc.) was used. […] To the resultant solution, 50 μL of an AMC substrate solution (0.01 mM) pre-incubated at 37° C. was added, and a fluorescence intensity was measured at an excitation wavelength of 340 nm and a measurement wavelength of 460 nm every 5 minutes for 30 minutes by using a microplate reader (GENio Pro, manufactured by TECAN). The activity in the case without sample was set as 100%, and the relative activity of each sample was calculated. The measurement was repeatedly performed three times for each sample to obtain an average.
Each of the peptide compositions thus obtained was dissolved in distilled water in a concentration of 3 mg/mL, the resultant was subjected to a 0.45 μm membrane filter treatment, and the DPPIV inhibitory activity test was performed in the same manner as in Example 2.
Each peptide identified by the LC-MS analysis of Example 6 was synthesized and dissolved in distilled water to find the DPPIV inhibitory activity in the same manner as in Example 2.

With `N[C@@H](Cc1ccccc1)C(=O)N1CCC[C@H]1C(=O)O` [FP, Phe-Pro] (H-Phe-Pro-OH), the half-inhibitory concentration (IC50) was above 100 µM.
For `CC(C)[C@H](NC(=O)[C@@H]1CCCN1C(=O)[C@@H](N)Cc1ccccc1)C(=O)NCC(=O)O` [FPVG, Phe-Pro-Val-Gly] (H-FPVG-OH; N-terminus and C-terminus assumed), the “Activity Contribution Ratio (%)” value stood at 0.4% and the IC50 is 40 µM.
Taken in the same sequence, the figures for `CC[C@H](C)[C@H](N)C(=O)N1CCC[C@H]1C(=O)O` [IP, Ile-Pro] (H-Ile-Pro-OH; N-terminus and C-terminus assumed) were 6.6% and 66 µM.
Consider `CC(C)C[C@H](N)C(=O)N1CCC[C@H]1C(=O)O` [LP, Leu -Pro] (H-Leu-Pro-OH), for which the IC50 is above 100 µM.
In the case of `CC(C)C[C@H](NC(=O)[C@@H](NC(=O)[C@@H]1CCCN1C(=O)[C@@H](N)CC(C)C)C(C)C)C(=O)O` [LPVL, Leu-Pro-Val-Leu] (H-LPVL-OH; N-terminus and C-terminus assumed), the “Activity Contribution Ratio (%)” value worked out at 0.2% and the concentration for half-maximal inhibition (IC50) is 46 µM.
